# Source: publication PMC11983575, “Study on the synthesis and biological activity of kojic acid triazol thiosemicarbazide Schiff base derivatives” (Journal of Enzyme Inhibition and Medicinal Chemistry, 2025)
# What was measured:
# mushroom tyrosinase = mushroom tyrosinase (Agaricus bisporus, UniProt C7FF04); assay: Tyrosinase kinetic analysis (Lineweaver-Burk plots); type: biochemical
# Description: To study the inhibition type of kojic acid-triazole derivatives, the investigation of inhibitory type of selected compound 6w on mushroom tyrosinase was carried out according to reported protocol. Compound 6w was used at the concentrations of […], respectively. Substrate L-DOPA concentration was between 500 µM and 1000 µM in the process of all kinetic study. Pre-incubation time and measurement time were the same as described in mushroom tyrosinase inhibition assay procedure. Lineweaver–Burk’s plots of inverse of velocities (1/V) versus inverse of substrate concentration 1/[S] µM^−1 were used to determine the type of enzyme inhibition.
# Among the assessed kojic acid triazol thiosemicarbazide Schiff base derivatives, compound 6w expressed better tyrosinase inhibitory activity than the other compounds, in order to further explore the inhibition mechanism, the inhibitory type of the compound 6w on mushroom tyrosinase was decided by the Lineweaver–Burk double reciprocal plots. The Lineweaver–Burk plots were obtained by different concentrations of the compound 6w and the substrate (Figure 2(A)). The plots of 1/V versus 1/[S] gave a family of straight lines with different slopes. […] All of the straight lines intersected at a point in the second quadrant. […] The inhibition constant (Ki) of the compound was obtained by a plot of the slope versus the concentrations of the compound 6w, Kis of the compound was obtained by a plot of vertical intercept (1/Vm) versus the concentrations of the compound 6w, the results were shown in Figure 2(B,C). […] Compound 6w has a better binding with free enzyme.
# Figure 2. Kinetic inhibition measurement of compound 6w. […] (A) The concentrations of compound 6w in the figure were 0, 0.5 μM, 1 μM, and 2 μM, respectively. (B) The secondary replot indicates the intercept versus the concentrations of compound 6w to define the inhibition constant Kis. (C) The secondary replot indicates the slope versus the concentrations of compound 6w to define the inhibition constant Ki.
# [1] = DPPH free radical scavenging activity assay; conditions: DPPH 150 μM, 30 min, 517 nm; read-out: DPPH/IC50 (μM) ± SD
# Description: The anti-oxidation effect on DPPH radical was determined by a slightly modified version of a previously described DPPH radical scavenging assay. Reaction mixtures consisted of 100 μl of DPPH (150 μM), 20 μl of increasing concentration of test compounds and the volume was adjusted to 200 μl in each well with DMSO. The assay solution was then incubated at room temperature (25 °C) for 30 min in the dark. After the incubation, absorbance at 517 nm was measured by using UV-2600 spectrophotometer. The experiments were undertaken in triplicate. DMSO was used as a control. Ascorbic acid was used as antioxidant standard for comparison of the activity. The calculation of DPPH radical scavenging activity was followed by this formula: DPPH radical scavenging activity %=absorbance of standard−absorbance of sample/Absorbance of standard×100
# [2] = ABTS radical cation scavenging activity assay; conditions: 734 nm; read-out: ABTS+/IC50 (μM) ± SD
# Description: ABTS free radical scavenging activity was performed according to the procedure described by Zhang et al.[40] Test solution of ABTS decolourisation assay was prepared by mixing 2.45 mM potassium persulfate and 7 mM ABTS at 8:12 volume/volume ratio. The working solution was kept in the dark at room temperature for 12–18 h. Before ABTS radical scavenging test, the ABTS test solution was diluted with DMSO to absorbance of 0.7 (±0.02) at 734 nm. One millilitre of diluted ABTS test solution was added to 10 μl of DMSO or test sample. After initial mixing, the working solution was kept in the dark at room temperature for 2–6 min, and the absorbance was measured at 734 nm. This test was carried out in triplicate. DMSO was used as a control. Ascorbic acid was used as antioxidant standard for comparison of the activity. The absorbance of test samples was calculated by the following formula. ABTS scavenging ability %=absorbance of standard−absorbance of sample/absorbance of standard×100.
# mushroom tyrosinase, sequence (C7FF04 1-392): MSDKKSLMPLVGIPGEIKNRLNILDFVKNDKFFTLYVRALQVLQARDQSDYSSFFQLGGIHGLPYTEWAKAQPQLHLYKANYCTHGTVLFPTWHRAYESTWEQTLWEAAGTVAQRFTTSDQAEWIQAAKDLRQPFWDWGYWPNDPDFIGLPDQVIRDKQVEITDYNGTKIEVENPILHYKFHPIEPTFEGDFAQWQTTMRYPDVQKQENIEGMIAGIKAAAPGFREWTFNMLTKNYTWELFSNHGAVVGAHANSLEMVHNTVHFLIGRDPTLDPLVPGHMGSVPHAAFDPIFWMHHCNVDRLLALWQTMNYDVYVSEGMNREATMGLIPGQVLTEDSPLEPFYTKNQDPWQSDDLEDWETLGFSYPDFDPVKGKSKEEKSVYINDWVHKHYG
substance,measurement,setting,value
"2-(1-(4-((1-((5-Hydroxy-4-oxo-4H-pyran-2-yl)methyl)-1H-1,2,3-triazol-5-yl)methoxy)phenyl)ethylidene)hydrazinecarbothioamide [Compound 6w]",inhibition type,mushroom tyrosinase; Lineweaver-Burk double reciprocal plots,mixed type inhibitor
same,Ki,"mushroom tyrosinase; from plot of slope versus concentration of 6w, free enzyme, read-out: inhibition constant Ki",0.0003 µM
same,inhibition constant Kis,mushroom tyrosinase; from plot of vertical intercept (1/Vm) versus concentration of 6w,0.1997 µM
same,IC50,[1],14.44 ± 0.077 µM
same,IC50,[2],3.03 ± 0.009 µM
